Laboratory results reported in patent publication US4980377A, “1-(aminophenyl)-2-aminopropanone derivatives” (Laboratoire L. Lafon, priority 1984, dated 1990).
“Also recorded” adds a separate entry of the source. Structures can show the parent of a compound that is named as a salt.

What was measured:
mice [1] = assay: Overall behavior and reactivities in mice; assay type: in vivo, mouse; conditions: dose not stated
Description: (§1) In the neuropsychopharmacological study which follows, a solution of CRL 41 153 in distilled water (pH 1.5) was administered intraperitoneally in a volume of 20 ml/kg to male mice and 5 ml/kg to male rats.
(§2) Groups of three animals are observed before and then 0.25 hour, 0.50 hour, 1 hour, 2 hours, 3 hours and 24 hours after the administration of CRL 41 153.

rats [2] = assay: Overall behavior and reactivities in rats; assay type: in vivo, rat; conditions: dose not stated
Description: as §1, §2

mice [3] = assay: Interaction with apomorphine in mice; assay type: in vivo, mouse; conditions: i.p.
Description: Groups of 6 mice receive CRL 41 153 0.5 hour before the subcutaneous injection of 1 or 16 mg/kg of apomorphine.

rats [4] = assay: Interaction with apomorphine in rats; assay type: in vivo, rat; conditions: i.p.
Description: CRL 41 153 is administered to groups of 6 rats 0.5 hour before the subcutaneous injection of 0.5 mg/kg of apomorphine.

rats [5] = assay: Interaction with amphetamine; assay type: in vivo, rat; conditions: i.p.
Description: Amphetamine (2 mg/kg) is injected intraperitoneally into groups of 6 rats 30 minutes after the administration of CRL 41 153. […] 4 mg/kg and 16 mg/kg, CRL 41 153 potentiates the intensity and duration of the stereotypies induced by amphetamine.

mice [6] = assay: Interaction with reserpine; assay type: in vivo, mouse; conditions: i.p.
Description: Four hours after the intraperitoneal injection of 2.5 mg/kg of reserpine, groups of 6 mice receive CRL 41 153.

mice [7] = assay: Interaction with oxotremorine; assay type: in vivo, mouse; conditions: i.p.
Description: CRL 41 153 is administered to groups of 6 mice 0.5 hour before the intraperitoneal injection of 0.5 mg/kg of oxotremorine.

mice [8] = assay: Four plate test, traction and electric shock; assay type: in vivo, mouse; conditions: i.p.
Description: The test is performed on groups of 10 mice 30 minutes after the administration of CRL 41 153.

mice [9] = assay: Spontaneous motility; assay type: in vivo, mouse; conditions: i.p.
Description: 0.5 hour after they have received CRL 41 153, the mice (6 per dose, 12 control animals) are placed in an actimeter, where their motility is recorded for 30 minutes.

mice [10] = assay: Intergroup aggressiveness; assay type: in vivo, mouse; conditions: i.p.
Description: After they have stayed for 3 weeks in the two halves of a cage divided by an opaque partition, groups of 3 mice receive CRL 41 153. Half an hour later, the two groups from the same cage are brought together by removal of the partition, and the number of fights which occur in 10 minutes is noted.

mice [11] = assay: Motility reduced by habituation to the enclosure; assay type: in vivo, mouse; conditions: i.p.
Description: After they have stayed In the actimeters for 18 hours, (he mice (6 per dose, 12 control animals) receive CRL 41 153. They are immediately returned to their respective enclosures and, half an hour later, their motility is recorded for 30 minutes.

mice [12] = assay: Motility reduced by hypoxic aggression; assay type: in vivo, mouse; conditions: i.p.
Description: Half an hour after they have received CRL 41 153, the mice (10 per dose, 20 control animals) are subjected to acute hypobaric anoxia [pressure reduction of 600 mm Hg (i.e. about 8×10^4 Pa) in 90 seconds; release of vacuum in 45 seconds] and are then placed in an actimeter, where their motility is recorded for 10 minutes.

mice [13] = assay: Asphyxiant anoxia (gallamine triiodoethylate); assay type: in vivo, mouse; conditions: i.p., curarizing agent
Description: Groups of 10 mice receive CRL 41 153 half an hour before the intraperitoneal administration of 32 mg/kg of gallamine triiodoethylate (reference curarizing agent).

mice [14] = assay: Interaction with barbital; assay type: in vivo, mouse; conditions: i.p., barbital 220 mg/kg
Description: Half an hour after the administration of CRL 41 153, groups of 10 mice receive an intraperitoneal injection of barbital (220 mg/kg).

mice [15] = assay: Behavioral despair; assay type: in vivo, mouse; conditions: forcibly immersed mice, i.p.
From the text: Half an hour after they have received CRL 41 153, groups of 6 mice are placed in a beaker filled with water to a height of 6 cm. The total period of immobility between the 2nd and 6th minutes following immersion is noted.

dogs = assay: Cardiovascular study in anesthetized dogs; assay type: in vivo, dog
Description: Two dogs (average weight: 14.1 kg), anesthetized with nembutal, receive CRL 41 194 by intraduodenal administration at successive doses of 0.1 mg/kg, 0.5 mg/kg, 1 mg/kg, 2.5 mg/kg, 5 mg/kg and 10 mg/kg (in solution in physiological solvent).
The blood pressure, the heart rate, the blood flow through the femoral artery, the blood flow through the vertebral artery and the rectal temperature are measured. The coloration of the skin and the coloration of the bile, collected by catheterization of the bile duct after ligature of the cystic duct, are observed.
4 dogs (average weight: 14 kg), anesthetized with nembutal, receive CRL 41 221 by intraduodenal administration at successive doses of 0.1 mg/kg, 0.5 mg/kg, 1 mg/kg, 2.5 mg/kg, 5 mg/kg and 10 mg/kg. The blood pressure, the heart rate, the blood flow through the femoral artery, the blood flow through the vertebral artery and the rectal temperature are measured. The coloration of the skin is observed.

[16] = system: gravid White New Zealand female rabbits; assay: Teratogenicity in gravid White New Zealand rabbits; assay type: in vivo, rabbit; conditions: day 5 to day 18 of gestation; for Affected foetuses, %: normal limit 1.5%
Summary of the method: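 Fetuses harvested by cesarean on gestation day 29 were scored for number and for any malformation (limb blockade, anury, tail or skull defects, exencephaly).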

[17] = pH of solutions in distilled water; assay type: physicochemical
Description: The neuropsychopharmacological study was undertaken according to the procedures described above for CRL 41 153, CRL 41 213 being adminstered intraperitoneally, in solution in distilled water, in a volume of 20 ml/kg to male mice and a volume of 5 ml/kg to male rats, and the pH of the injected solution varying with the concentration of CRL 41 213 according to the data given in Table II below.

CNS = assay: Neuropsychopharmacological profile as a whole; assay type: in vivo, mice and rats; conditions: conclusion of the tests
Description: as §1

immunity = assay: Immunological study (overall); conditions: in vivo; hydrochloride
[18] = anesthetized dogs, intraduodenal
[19] = dogs, after product, isoprenaline 3 μg/kg
[20] = dogs, after product, norepinephrine 2 μg/kg

In the case of `CC(C)NC(C)C(=O)c1ccc(N)c(Cl)c1` (centres unmarked) [CRL 41 221, 1-(4-amino-3-chlorophenyl)-2-isopropylaminopropanone hydrochloride], the “Stereotype movements (summary)” value (mice [1]) is reported as “the presence of stereotype movements in mice and rats”, the “Overall behavior: observed effects (summary)” value (mice [1]; hydrochloride) is reported as “excitation with hyperreactivity in mice and rats; also recorded: mydriasis and salivation in mice and rats” and the “Stereotype movements (summary)” value (rats [2]) is reported as “the presence of stereotype movements in mice and rats”. For the same compound, the “Overall behavior: observed effects (summary)” value (rats [2]; hydrochloride) was “excitation with hyperreactivity in mice and rats; also recorded: mydriasis and salivation in mice and rats”, the “Effect on hypothermia induced by apomorphine” value (mice [3]) was “antagonism of the hypothermia” and the “Effect on stereotypies induced by apomorphine” value (rats [4]) was “potentiation of the stereotypies”. For the same compound, the “Effect on stereotypies induced by amphetamine” value (rats [5]) was “potentiation of the stereotypies”, the “Effect on hypothermia induced by reserpine” value (mice [6]) was “antagonism of the hypothermia” and the “Effect on ptosis induced by reserpine” value (mice [6]) was “a decrease in the ptosis induced by reserpine”. For the same compound, the “Effect on hypothermic action of oxotremorine” value (mice [7]) was “antagonism of the hypothermia”, the “Effect on convulsant effects of electric shock” value (mice [8]) was “a reduction in the convulsant effects of electric shock” and the “Number of punished passes in the four plate test” value (mice [8]) was “a moderate increase in the number of punished passes in the 4 plate test on mice (at a strong dose)”. For the same compound, the Spontaneous motor activity (mice [9]) was “an increase in the spontaneous motor activity of mice”, the “Number of fights / intergroup aggressiveness” value (mice [10]) was “a reduction in the aggressiveness” and the “Motor activity of mice accustomed to their enclosure” value (mice [11]) was “resumption in the motor activity of mice accustomed to their enclosure”. For the same compound, the “Motor recovery of mice after hypobaric hypoxia” value (mice [12]) was “improvement in the motor recovery of mice subjected to acute hypoxia”, the “Time taken for convulsions to occur” value (mice [13]) was “a reduction in the aggressiveness and (he time taken for convulsions and death to occur” and the “Time taken for death to occur” value (mice [13]) was “a reduction in the aggressiveness and (he time taken for convulsions and death to occur”. The “Duration of the sleep induced by barbital” value (mice [14]) was “a reduction in the duration of the sleep induced by barbital”, the “Period of immobility due to despair” value (mice [15]) was “a reduction in the period of immobility of mice which have been forcibly immersed” and the “Effect on hypertension induced by norepinephrine” value (dogs; anesthetized dogs) was “slightly reduced”. The “Effects of isoprenaline on the blood pressure” value (dogs; anesthetized dogs) was “not modified as regards the diastolic blood pressure”, the Rectal temperature (dogs; anesthetized dogs) was “the rectal temperature and skin temperature rise gradually” and the Skin temperature (dogs; anesthetized dogs) was “the rectal temperature and skin temperature rise gradually”. The “Effects of isoprenaline on the heart rate” value (dogs; anesthetized dogs, after accumulated dose of 19.1 mg/kg intraduodenal) was “slightly reduced as regards the heart rate”, the Blood pressure (dogs; [18]) was “A reduction in the diastolic blood pressure is observed at 5 mg/kg and hypotension appears at 10 mg/kg” and the Femoral flow (dogs; [18]) was “tachycardiac effect as from 2.5 mg/kg, that the femoral flow increases substantially as from this same dose”. For the same compound, the Heart rate (dogs; [18]) was “tachycardiac effect as from 2.5 mg/kg”, the Respiration (dogs; [18]) was “the respiration is stimulated” and the Vertebral flow (dogs; [18]) was “the vertebral flow increases at a dose of 0.5 mg/kg”. The “Effect of propanolol or atenolol on the action of the product” value (dogs; anesthetized dogs, hydrochloride) was “The injection of atenolol into 2 dogs reduces the effects of CRL 41 221; also recorded: the injection of propanolol does not increase the β^- effects”, the “Heart rate after isoprenaline” value (dogs; [19]) was 262 beats/minute and the “Heart rate before isoprenaline” value (dogs; [19]) was 212 beats/minute. For the same compound, the “Systolic blood pressure after norepinephrine” value (dogs; [20]) was 266 mm Hg, the “Systolic blood pressure before norepinephrine” value (dogs; [20]) was 158 mm Hg and the “Vasodilator (conclusion)” value (dogs; hydrochloride) was “vasodiating properties; also recorded: consequently a vasodilator”. The “Affected foetuses, number” value ([16]; 5 mg/kg daily) was 1, the “Total foetuses (live)” value ([16]; 5 mg/kg daily) was 91 and the “Affected foetuses, %” value ([16]; 5 mg/kg daily) was 1.11%. For the same compound, the “Affected foetuses, number” value ([16]; 10 mg/kg daily) was 1, the “Total foetuses (live)” value ([16]; 10 mg/kg daily) was 87 and the “Affected foetuses, %” value ([16]; 10 mg/kg daily) was 1.14%. The pH ([17]; 6 g/liter in distilled water) was 5.0, the pH ([17]; 13 g/liter in distilled water) was 4.5 and the pH ([17]; 50 g/liter in distilled water) was 4.0. The pH ([17]; ≤3 g/liter in distilled water) was 5.5, the “Antidepressant effects (overall)” value (CNS) was “antidepressant properties” and the “Stimulant effects (overall)” value (CNS) was “large stimulant component”. For the same compound, the “α-adrenergic stimulant effects (overall)” value (CNS) was “an α-adrenergic stimulation component” and the “Immunological effect (overall)” value (immunity) was “immunostimulant or immunomodulating effects; also recorded: has an immunomodulating effect and increases the cellular immunity”.
